Assay results as given in patent US10563272B2, “Compositions comprising Metarhizium fungi and use thereof as a pesticide” (Cotton Research and Development Corporation, priority 2015, dated 2020).

Columns and labels:
spiders [1] = assay: Bollgard II cotton, Auscott-Togo 2012-13, Field 63 (Experiment 2): spiders; type: in vivo, Lycosa spp., Oxyopes spp., Salticidae spp., Araneus spp.; settings: 62.5 mL/ha
Description: (§1) Two separate trials (Experiment 1 in Field 77; Experiment 2 in Field 63) were conducted in Bollgard II cotton crops on a commercial cotton farm at Auscott-Togo near Narrabri, New South Wales from 11 Feb. to 5 Mar. 2013 (Field 77) and 19 Feb. to 6 Mar. 2013 (Field 63). The cotton used for each of the trials was at the late squaring to pod setting and maturation stages which was fairly attractive to green mirids.
(§2) In both trials, the efficacy of the following treatments against green mirids and predatory insects was evaluated: • 1. 250 mL/ha DAT 511 spore in oil (1×10^7 spores/ml); • 2. 500 mL/ha DAT 511 spore in oil (1×10^7 spores/ml); • 3. 1 L/ha DAT 511 spore in oil (1×10^7 spores/ml); • 4. 62.5 mL/ha of fipronil; and • 5. Unsprayed (negative control).
(§3) The treatment plots were arranged in a randomized complete block design with six replicates per treatment. Each replicated plot measured 40 m wide (40 rows) and 90 m long.
(§4) Foliar application of each treatment was made on 28 Feb. (for both green mirids and beneficial insects) and 13 Mar. 2012 (for beneficial insects alone) using a ground spray rig fitted with flat fan nozzles to achieve a droplet size of 200 μm. The treatment was applied during the mornings when temperatures were between 20° C. and 28° C. The timing of treatment was based on the IPM Guidelines and recommendations by CottonLogic to use an economic threshold of 0.5 green mirids per metre (Deutscher and Wilson 1999; Khan et al. 2004).
(§5) Pre-treatment counts of green mirid adults and nymphs, predatory beetles, predatory bugs, predatory lacewings and spiders were made by visual inspection of whole cotton plants. Both adults and nymphs of beneficial insects were counted. Plants were assessed in randomly selected one-metre lengths of row of each replicate (i.e. 6 m per treatment). Post-treatment counts were made 3, 7, 14 and 21 days after treatment. Data are expressed as numbers of green mirid adults and nymphs counted per metre for each treatment.

predatory bugs [2] = assay: Bollgard II cotton, Auscott-Togo 2012-13, Field 63 (Experiment 2): predatory bugs; type: in vivo, Hemiptera (Nabidae, Lygaeidae, Pentatomidae); settings: 62.5 mL/ha
Description: as §1, §2, §3, §4, §5

predatory bugs [3] = assay: Rate trial on conventional cotton, Norwood 2012 (Example 10): predatory bugs; type: in vivo, Hemiptera (Nabidae, Lygaeidae, Pentatomidae); settings: P>0.05
Description: (§6) This trial was conducted on commercial conventional cotton crops on a farm at Norwood (29° 28'S, 149° 50′E) near Moree, NSW, from 28 Feb. to 21 Mar. 2012. The cotton used for the trial was at the early squaring stage, when it was attractive to green mirids (Khan et al. 2004).
as §2, with “The” for “In both trials, the”, “were” for “was”, “Fipronil;” for “fipronil;”
as §3
(§7) Foliar application of each treatment was made on 28 Feb. (for both green mirids and beneficial insects) and 13 Mar. […]
(§8) Pre-treatment counts of adult and nymph green mirids, predatory beetles, predatory bugs, predatory lacewings and spiders were made by visual inspection of whole cotton plants. Both adults and nymphs of beneficial insects were counted. Plants were assessed in randomly selected one-metre lengths of row of each treatment replicate (i.e. 6 m per treatment). […] Data are expressed as numbers of green mirid adults and nymphs counted per metre per treatment.

[4] = tested on: green vegetable bugs (GVB); assay: Rate trial on conventional cotton refuge crops, Undabri 2012 (Example 12): green vegetable bugs; type: in vivo, Nezara viridula; settings: 14 DAT (P<0.01) and 21 DAT (P<0.05); DAT 511 500 mL/ha and 1 L/ha, fipronil
Description: (§9) This trial was conducted using commercial conventional cotton refuge crops at Undabri in Goondiwindi (28° 55'S, 150° 31′E) from 14 Feb. to 6 Mar. 2012.
as §2, with “The” for “In both trials, the”, “mirids, green vegetable bugs” for “mirids”, “assessed:” for “evaluated:”, “mL/ha” for “mL/ha of”
(§10) The plots were arranged in a randomized complete block design with three replicates per treatment. Each replicated plot measured 8 m (8 rows) wide and 250 m long.
(§11) Foliar applications of each treatment were made on 14 Feb. 2012 using a ground spray rig fitted with flat fan nozzles to achieve a droplet size of 200 μm. All insecticide formulations were water miscible. All treatments were applied using a spray volume of 100 L/ha. The untreated (negative control) plot was left unsprayed and the plot treated with synthetic insecticide received two applications similar to, and on the same date as, the plots treated with the fungus.
(§12) For each replicate, visual counts of adults and nymphs of green mirids, green vegetable bugs (GVB), apple dimpling bugs and predatory insects on whole cotton plants were made in a randomly selected 1 m length of row of cotton plants (i.e. 6 m per treatment). […]

spiders [5] = assay: Rate trial on conventional cotton, Norwood 2012 (Example 10): spiders; type: in vivo, Lycosa spp., Oxyopes spp., Salticidae spp., Araneus spp.; settings: P>0.05
Description: as §6
as §2, with “The” for “In both trials, the”, “were” for “was”, “Fipronil;” for “fipronil;”
as §3, §7, §8

spiders [6] = assay: Bollgard II cotton, Auscott-Togo 2012-13, Field 77 (Experiment 1): spiders; type: in vivo, Lycosa spp., Oxyopes spp., Salticidae spp., Araneus spp.; settings: 62.5 mL/ha
Description: as §1, §2, §3, §4, §5

green mirids = assay: Rate trial on conventional cotton refuge crops, Undabri 2012 (Example 12): green mirids; type: in vivo, Creontiades dilutus; settings: adults P<0.03, nymphs P<0.001
Description: as §9
as §2, with “The” for “In both trials, the”, “mirids, green vegetable bugs” for “mirids”, “assessed:” for “evaluated:”, “mL/ha” for “mL/ha of”
as §10, §11, §12

N#Cc1nn(-c2c(Cl)cc(C(F)(F)F)cc2Cl)c(N)c1[S+]([O-])C(F)(F)F (stereo not shown) [fipronil]
No. spiders per meter (spiders [1]; 3 DAT): 7.33 ± 1.45 a per meter
No. spiders per meter (spiders [1]; 7 DAT): 4.33 ± 0.67a per meter
No. spiders per meter (spiders [1]; 14 DAT): 1.33 ± 0.33a per meter
No. spiders per meter (spiders [1]; 21 DAT): 3.67 ± 0.33 a per meter
No. spiders per meter (spiders [1]; pre-spray counts): 11.67 ± 1.61 a per meter
No. predatory bugs per meter (predatory bugs [2]; 3 DAT): 0.00 ± 0.00 a per meter
No. predatory bugs per meter (predatory bugs [2]; 7 DAT): 0.33 ± 0.33 a per meter
No. predatory bugs per meter (predatory bugs [2]; 14 DAT): 0.00 ± 0.00 a per meter
No. predatory bugs per meter (predatory bugs [2]; 21 DAT): 0.00 ± 0.00 a per meter
No. predatory bugs per meter (predatory bugs [2]; pre-spray counts): 0.00 ± 0.00 a per meter
number of predatory bugs versus unsprayed (control) plots (predatory bugs [3]): No significant difference
green vegetable bugs per metre on unsprayed plots relative to treated plots [4]: significantly higher
number of spiders versus unsprayed (control) plots (spiders [5]): No significant difference
No. spiders per meter (spiders [6]; 3 DAT): 5.00 ± 1.73 a per meter
No. spiders per meter (spiders [6]; 7 DAT): 5.33 ± 1.86 a per meter
No. spiders per meter (spiders [6]; 14 DAT): 9.33 ± 0.67a per meter
No. spiders per meter (spiders [6]; 21 DAT): 8.67 ± 0.88 a per meter
No. spiders per meter (spiders [6]; pre-spray counts): 11.67 ± 1.67a per meter
green mirid adults and nymphs per metre versus unsprayed plots (green mirids): Significantly fewer
